# From patent US11065253B2, “Arylquinazolines” (Merck Patent GmbH, priority 2013, dated 2021)
# Where two headings read alike, the source gives them in different places.
# Tested on: phospho-serine 2056 DNA-PK in HCT116 cells
# Test: DNA-PK phosphorylation at serine 2056 (cellular), ELISA in bleomycin-treated HCT116 cells
# Format: cell-based
# Conditions: read-out: IC50 pDNA-PK
# Outline: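 Test compounds and bleomycin (10 μM) are added to adherent HCT116 cells for 6 h. Detection uses an HRP-based chemiluminescent ELISA, with phospho-DNA-PK signals standardised to total protein.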
# [1] = Homo sapiens, HCT-116, 6 h, cellular, HCT116 cells, 10 μM bleomycin, six hours
# [2] = Homo sapiens, HCT-116, phospho-serine 2056 DNA-PK, bleomycin-treated HCT116 cells, class symbols A-D
Compound,IC50 [1] [µM],IC50 [2] [µM],other results
"Cc1nccnc1[C@H](O)c1ccc(F)c(-c2ncnc3cc(N4CCOCC4)ccc23)c1 [Example 83, (R)-[4-Fluoro-3-(7-morpholin-4-yl-quinazolin-4-yl)-phenyl]-(3-methyl-pyrazin-2-yl)methanol]",< 0.5,,
"Cc1nccnc1C(O)c1cc(-c2ncnc3cc(N4CCOCC4)ccc23)c(F)cc1F (stereo not drawn) [Example 84, [2,4-Difluoro-5-(7-morpholin-4-yl-quinazolin-4-yl)-phenyl]-(3-methyl-pyrazin-2-yl)methanol]",< 0.5,,
"Cc1nccnc1C(O)c1cc(-c2ncnc3cc(N4CCOCC4)ccc23)c(F)cc1F (stereo not drawn) [Example 86, [2,4-Difluoro-5-(7-morpholin-4-yl-quinazolin-4-yl)-phenyl]-(3-methyl-pyrazin-2-yl)methanol]",,,"IC50 (cellular, HCT116 cells, 10 μM bleomycin, six hours): < 0.5 µM"
"COc1cncnc1C(O)c1ccc(F)c(-c2ncnc3cc(N4CCOCC4)ccc23)c1 (stereo not drawn) [Example 87, [4-Fluoro-3-(7-morpholin-4-yl-quinazolin-4-yl)-phenyl]-(5-methoxy-pyrimidin-4-yl)-methanol]",< 0.5,,
"Cc1cnc(C)c(C(O)c2cc(-c3ncnc4cc(N5CCOCC5)ccc34)c(F)cc2F)n1 (stereo not drawn) [Example 88, [2,4-Difluoro-5-(7-morpholin-4-yl-quinazolin-4-yl)-phenyl]-(3,6-dimethyl-pyrazin-2-yl)methanol]",< 0.5,,
"OC(c1cc(-c2ncnc3cc(N4CCOCC4)ccc23)ccc1Cl)c1ncnc2ccsc12 (stereo not drawn) [Example 89, [2-Chloro-5-(7-morpholin-4-yl-quinazolin-4-yl)-phenyl]thieno[3,2-d}-pyrimidin-4-ylmethanol]",< 0.5,,
"OC(c1cc(-c2ncnc3cc(N4CCOCC4)ccc23)c(F)cc1F)c1ncnc2sccc12 (stereo not drawn) [Example 90, [2,4-Difluoro-5-(7-morpholin-4-yl-quinazolin-4-yl)-phenyl]thieno[2,3-d}-pyrimidin-4-ylmethanol]",< 0.5,,
"Cn1c(C(O)c2ccc(F)c(-c3ncnc4cc(N5CCOCC5)ccc34)c2)cccc1=O (stereo not drawn) [Example 91, 6-{[4-Fluoro-3-(7-morpholin-4-yl-quinazolin-4-yl)-phenyl]hydroxy-methyl}-1-methyl-1H-pyridin-2-one]",< 0.5,,
"O=c1ccc(C(O)c2cc(-c3ncnc4cc(N5CCOCC5)ccc34)c(F)cc2Cl)n[nH]1 (stereo not drawn) [Example 92, 3-[[2-Chloro-4-fluoro-5-(7-morpholino-quinazolin-4-yl)phenyl]-hydroxymethyl]-1H-pyridazin-6-one]",< 0.5,,
"CCn1nc(C(O)c2cc(-c3ncnc4cc(N5CCOCC5)ccc34)c(F)cc2Cl)ccc1=O (stereo not drawn) [Example 93, 6-{[2-Chloro-4-fluoro-5-(7-morpholin-4-yl-quinazolin-4-yl)phenyl]-hydroxymethyl}-2-ethyl-2H-pyridazin-3-one]",< 0.5,,
"NCCn1nc(C(O)c2cc(-c3ncnc4cc(N5CCOCC5)ccc34)c(F)cc2Cl)ccc1=O (stereo not drawn) [Example 94, 2-(2-Amino-ethyl)-6-{[2-Chloro-4-fluoro-5-(7-morpholin-4-yl-quinazolin-4-yl)phenyl]-hydroxy-methyl}-2H-pyridazin-3-one]",10 to 30,,
"O=c1ccc(C(O)c2cc(-c3ncnc4cc(N5CCOCC5)ccc34)c(F)cc2Cl)nn1C1CC1 (stereo not drawn) [Example 95, 6-{[2-Chloro-4-fluoro-5-(7-morpholin-4-yl-quinazolin-4-yl)phenyl]-hydroxymethyl}-2-cyclopropyl-2H-pyridazin-3-one]",0.5 to 5,,
"NC(=O)Cn1nc(C(O)c2cc(-c3ncnc4cc(N5CCOCC5)ccc34)c(F)cc2Cl)ccc1=O (stereo not drawn) [Example 98, 2-(3-{[2-Chloro-4-fluoro-5-(7-morpholin-4-ylquinazolin-4-yl)-phenyl]hydroxymethyl}-6-oxo-6H-pyridazin-1-yl)acetamide]",10 to 30,,
"O=c1ccc(C(O)c2cc(-c3ncnc4cc(N5CCOCC5)ccc34)c(F)cc2Cl)nn1CCO (stereo not drawn) [Example 99, 6-{[2-Chloro-4-fluoro-5-(7-morpholin-4-yl-quinazolin-4-yl)phenyl]-hydroxymethyl}-2-(2-hydroxy-ethyl)-2H-pyridazin-3-one]",0.5 to 5,,
"OC(c1ccc(OC2COC2)nn1)c1cc(-c2ncnc3cc(N4CCOCC4)ccc23)c(F)cc1Cl (stereo not drawn) [Example 100, [2-Chloro-4-fluoro-5-(7-morpholin-4-yl-quinazolin-4-yl)-phenyl]-[6-(oxetan-3-yloxy)pyridazin-3-yl]-methanol]",,< 0.5,
"CC(C#N)Oc1ccc(C(O)c2cc(-c3ncnc4cc(N5CCOCC5)ccc34)c(F)cc2Cl)nn1 (stereo not drawn) [Example 101, 2-(6-{[2-Chloro-4-fluoro-5-(7-morpholin-4-yl-quinazolin-4-yl)-phenyl]hydroxy-methyl}pyridazin-3-yloxy)propionitrile]",,,"IC50 (phospho-serine 2056 DNA-PK, bleomycin-treated HCT116 cells, class symbols A-D): < 0.5 µM"
"OCCOc1nccnc1C(O)c1ccc(F)c(-c2ncnc3cc(N4CCOCC4)ccc23)c1 (stereo not drawn) [Example 105, 2-(3-{[4-fluoro-3-(7-morpholin-4-yl-quinazolin-4-yl)-phenyl]hydroxy-methyl}pyrazin-2-yl-oxy)ethanol]",,10 to 30,

Compound,IC50 [1] [µM],IC50 [2] [µM],other results
"OCCNc1nccnc1C(O)c1ccc(F)c(-c2ncnc3cc(N4CCOCC4)ccc23)c1 (stereo not drawn) [Example 106, 2-(3-{[4-fluoro-3-(7-morpholin-4-yl-quinazolin-4-yl)-phenyl]hydroxy-methyl}pyrazin-2-yl-amino)ethanol]",,5 to 10,
"N#CCCOc1ccc(C(O)c2cc(-c3ncnc4cc(N5CCOCC5)ccc34)c(F)cc2Cl)nn1 (stereo not drawn) [Example 107, 3-(6-{[2-Chloro-4-fluoro-5-(7-morpholin-4-yl-quinazolin-4-yl)-phenyl]hydroxy-methyl}pyridazin-3-yl-oxy)propionitrile]",,0.5 to 5,
"CSc1ccc(C(O)c2cc(-c3ncnc4cc(N5CCOCC5)ccc34)c(F)cc2Cl)nn1 (stereo not drawn) [Example 108, [2-Chloro-4-fluoro-5-(7-morpholin-4-yl-quinazolin-4-yl)-phenyl]-(6-methyl-sulfanylpyridazin-3-yl)methanol]",,< 0.5,
"COc1cc(C)c(C(O)c2cc(-c3ncnc4cc(N5CCOCC5)ccc34)c(F)cc2Cl)nn1 (stereo not drawn) [Example 109, [2-Chloro-4-fluoro-5-(7-morpholin-4-yl-quinazolin-4-yl)-phenyl]-(6-methoxy-4-methylpyridazin-3-yl)methanol]",,5 to 10,
"COc1nnc(C(O)c2cc(-c3ncnc4cc(N5CCOCC5)ccc34)c(F)cc2Cl)cc1C (stereo not drawn) [Example 110, [2-Chloro-4-fluoro-5-(7-morpholin-4-yl-quinazolin-4-yl)-phenyl]-(6-methoxy-5-methylpyridazin-3-yl)methanol]",,0.5 to 5,
"NC(=O)COc1ccc(C(O)c2cc(-c3ncnc4cc(N5CCOCC5)ccc34)c(F)cc2Cl)nn1 (stereo not drawn) [Example 111, 2-(6-{[2-Chloro-4-fluoro-5-(7-morpholin-4-yl-quinazolin-4-yl)-phenyl]hydroxy-methyl}pyridazin-3-yloxy)acetamide]",,5 to 10,
"COCCOc1ccc(C(O)c2cc(-c3ncnc4cc(N5CCOCC5)ccc34)c(F)cc2Cl)nn1 (stereo not drawn) [Example 112, [2-Chloro-4-fluoro-5-(7-morpholin-4-yl-quinazolin-4-yl)-phenyl]-[6-(2-methoxyethoxy)-pyridazin-3-yl]-methanol]",,0.5 to 5,
"O=C(O)COc1ccc(C(O)c2cc(-c3ncnc4cc(N5CCOCC5)ccc34)c(F)cc2Cl)nn1 (stereo not drawn) [Example 113, (6-{[2-Chloro-4-fluoro-5-(7-morpholin-4-yl-quinazolin-4-yl)-phenyl]hydroxy-methyl}pyridazin-3-yl-oxy)acetic acid]",,10 to 30,
"COC(=O)COc1ccc(C(O)c2cc(-c3ncnc4cc(N5CCOCC5)ccc34)c(F)cc2Cl)nn1 (stereo not drawn) [Example 114, (6-{[2-Chloro-4-fluoro-5-(7-morpholin-4-yl-quinazolin-4-yl)-phenyl]hydroxy-methyl}pyridazin-3-yl-oxy)acetic acid methyl ester]",,10 to 30,
"OC(c1ccc(OCC(F)(F)F)nn1)c1cc(-c2ncnc3cc(N4CCOCC4)ccc23)c(F)cc1Cl (stereo not drawn) [Example 115, [2-Chloro-4-fluoro-5-(7-morpholin-4-yl-quinazolin-4-yl)-phenyl]-[6-(2,2,2-trifluoro-ethoxy)-pyridazin-3-yl]-methanol]",,0.5 to 5,
"OCCOc1ccc(C(O)c2cc(-c3ncnc4cc(N5CCOCC5)ccc34)c(F)cc2Cl)nn1 (stereo not drawn) [Example 116, 2-(6-{[2-Chloro-4-fluoro-5-(7-morpholin-4-yl-quinazolin-4-yl)-phenyl]hydroxy-methyl}pyridazin-3-yl-oxy)ethanol]",,0.5 to 5,
"Nc1nccnc1C(O)c1cc(-c2ncnc3cc(N4CCOCC4)ccc23)c(F)cc1Cl (stereo not drawn) [Example 117, (3-Amino-pyrazin-2-yl)-[2-chloro-4-fluoro-5-(7-morpholin-4-yl-quinazolin-4-yl)-phenyl]methanol]",,0.5 to 5,
"N#Cc1ccc(C(O)c2cc(-c3ncnc4cc(N5CCOCC5)ccc34)c(F)cc2Cl)nn1 (stereo not drawn) [Example 118, 6-{[2-Chloro-4-fluoro-5-(7-morpholin-4-yl-quinazolin-4-yl)-phenyl]hydroxy-methyl}pyridazine-3-carbonitrile]",,0.5 to 5,
"N#CCOc1ccc(C(O)c2cc(-c3ncnc4cc(N5CCOCC5)ccc34)c(F)cc2Cl)nn1 (stereo not drawn) [Example 119, (6-{[2-Chloro-4-fluoro-5-(7-morpholin-4-yl-quinazolin-4-yl)-phenyl]hydroxy-methyl}pyridazin-3-yl-oxy)acetonitrile]",,< 0.5,
"COc1ccc(C(O)c2cc(-c3ncnc4cc(N5CCOCC5)ccc34)c(F)cc2F)cc1 (stereo not drawn) [Example 120, [2,4-Difluoro-5-(7-morpholin-4-yl-quinazolin-4-yl)-phenyl]-(4-methoxyphenyl)-methanol]",,0.5 to 5,
"OC(c1ccc(F)c(-c2ncnc3cc(N4CCOCC4)ccc23)c1)c1ccc(OC(F)F)nn1 (stereo not drawn) [Example 121, (6-Difluoro-methoxy-pyridazin-3-yl)-[4-fluoro-3-(7-morpholin-4-yl-quinazolin-4-yl)-phenyl]methanol]",,0.5 to 5,
